Laboratory results taken from patent US20220152101A1, “CELLULAR IMMUNOTHERAPY COMBINATION” (CARSGEN THERAPEUTICS CO., LTD., priority 2019, published 2022).

System: Panc02/Luc-GFP-Claudin 18.2 cells
Experiment: In vivo inhibitory effect of Gemcitabine combined with CAR T cells on in situ mouse pancreatic cancer
Design: species or system C57BL/6 mice
Experimental: The pancreases of 6-week-old C57BL/6 mice are inoculated with 2×10^5 Panc02/Luc-GFP-Claudin 18.2 cells in situ, and is recorded as Day 0 in the tumor cell inoculation diary.
On the 6th day after tumor inoculation (i.e., Day 6), mouse T cells are taken and constructed according to Example 1 to construct the 8E5-2I-mBBZ CAR T cell line. At the same time, the mice are subjected to in vivo imaging, and the mice are randomly grouped according to the tumor burden of the mice. The main groups are:
Group 1: UTD group, that is, the group administrated only untransfected mouse T cell treatment;
Group 2: CART group, that is, the group administrated only 8E5-2I-mBBZ CAR T cell therapy;
Group 3: Gemcitabine group, that is, the group administrated only Gemcitabine; and
Group 4: Gemcitabine+CART group, that is, the group administrated 8E5-2I-mBBZ CAR T cells combined with Gemcitabine treatment.
On the 6th, 7th, and 8th day (i.e., Day 6, 7, and 8), mice in the Gemcitabine group and Gemcitabine+CART group are administrated 30 mg/kg Gemcitabine for treatment, intraperitoneal administration, once a day. […]

With `Cl.Nc1ccn([C@@H]2O[C@H](CO)[C@@H](O)C2(F)F)c(=O)n1` [Gemcitabine, 2′-deoxy-2′, 2′-difluorocytidine hydrochloride] the “tumor burdens compared to the UTD group” value (Day 13, in vivo imaging, FIG. 2, Gemcitabine 30 mg/kg i.p. Day 6-8, 3×10^6 CAR-T cells tail vein Day 9) was “significantly decreased” and the “tumor growth (in vivo imaging data)” value (FIG. 3, Gemcitabine+CART compared with the UTD group, P<0.05) was “continue to grow”.
